Data as given in patent US20120082677A1, “COMPOSITIONS FOR THE TREATMENT OF HCV AND HBV” (priority 2010, published 2012).

Columns and labels:
[1] = Experiment 7 (second): injection in white mice for about 15 days; assay type: in vivo; settings: 5 per group, injected for about 15 days
From the text: Experimental animals: We classified 20 white mice in 4 groups every group has 5 mice.

[2] = cited from earlier work

NC[C@H]1CC[C@H](C(=O)O)CC1 [tranexamic acid]
survival of the mice [1]: still alive | time of peak plasma concentration ([2]; absorption via the GIT): 2 h | excretion ([2]; chemical part): excreted in the urine mainly as unchanged drug | protein binding ([2]; in vivo): very low | absorption ([2]; via the GIT): easily absorbed via the GIT
